The values that follow are results of earlier work, collected in patent publication US20110237609A1, “ANTIFOLATE COMPOSITIONS” (Chelsea Therapeutics, Inc., priority 2010, published 2011).

The conditions of data set [1]: in words; b190 refers to US 20090253720.
For data set [2] the following is noted: in words, background statement.

For `C=C(CC(NC(=O)c1ccc(CCc2ccc3nc(N)nc(N)c3c2)cc1)C(=O)O)C(=O)O` (stereo not drawn), the solubility characteristics entry in data set [1] was “improved solubility characteristics in comparison to the dioic acid form”.

Turning to `C=C(CC(NC(=O)c1ccc(CCc2ccc3nc(N)nc(N)c3c2)cc1)C(=O)O)C(=O)O` (racemic) [compound of Formula (9), 2-{-4-[2-(2,4-diamino-quinazolin-6-yl)-ethyl]-benzoylamino}-4-methylene-pentanedioic acid], the solubility characteristics entry in data set [1] is recorded as “low solubility”. The bioavailability result in data set [2] is “low bioavailability”.
